Measured values reported in patent US5084082A, “Soybean plants with dominant selectable trait for herbicide resistance” (priority 1990, dated 1992).

Key:
Format in all cases: in vivo, soybean
Williams 82 [1] = test: Test C preemergence (soil) sulfonylurea application; details: 19 days after treatment
Text: (§1) W20, a line homozygous for a dominant sulfonylurea-resistance mutation, was compared to Williams 82 in terms of response to preemergence application of three sulfonylurea herbicides. The experimental unit consisted of a single 18 cm pot filled with soil (Sassafras loamy sand with 0.8% organic matter and pH 6.7) in which 6 seeds of a given soybean line were planted 2 cm deep. After planting, each pot was sprayed (using a conveyor belt spray apparatus to emulate field application) with one of 22 different treatments including a check sprayed with AGWT (90% acetone, 4% glycerol, 4% water, 2% Tween-20), and 21 different herbicide treatments using AGWT as a carrier. The herbicide treatments included 7 different concentrations (Table IX) each of three sulfonyl-ureas: Compound 5, Compound 4, and Compound 1. Each herbicide x line treatment was replicated three times. After herbicide treatment, pots were transferred to a greenhouse and arranged in a randomized complete block design. Nineteen days after treatment, each pot was rated visually for herbicide injury using the scale described previously. For each herbicide, analysis of variance on injury ratings was performed separately. Fisher's least significant difference (LSD) was used to determine the significance of line mean differences at each rate using the 95% level of confidence.

W20 = test: as above; details: 19 days after treatment
Text: as §1

mutant line W20 = test: Test B postemergence cross resistance test; details: Glycine max, post-emergence
Method in brief: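 Soybean mutant lines and Williams 82 sprayed postemergence at the second trifoliolate stage with ALS inhibitors (sulfonylureas, imidazolinones), each at two rates. Injury rated two to three times per pot over three weeks in the greenhouse and averaged; ANOVA per herbicide, Fisher's LSD at 95%.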

mutant line W28 = test: Test B postemergence cross resistance test; details: Glycine max, post-emergence; for mean % injury to soybean at 2 g/ha: W28, 2 g/ha postemergence
Method in brief: (§2)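 Mutant lines and Williams 82 plants, two per 10 cm pot, were sprayed postemergence at the second trifoliolate stage with 11 ALS inhibitors (eight sulfonylureas, three imidazolinones), each at two rates. Injury was rated two to three times per pot over three weeks in the greenhouse, then averaged.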

mutant line W19 = test: Test B postemergence cross resistance test; details: Glycine max, post-emergence; for percent soybean crop injury at 2 g/ha: W19, 2 g/ha postemergence
Method in brief: as §2

mutant line W17 = test: Test B postemergence cross resistance test; details: Glycine max, post-emergence; for soybean crop injury (%) at 2 g/ha: W17, 2 g/ha postemergence
Method in brief: as §2

Williams 82 [2] = test: Test B postemergence cross resistance test; details: Glycine max, post-emergence; for soybean crop injury at 2 g/ha: Wm 82, 2 g/ha postemergence
Method in brief: as §2

mutant line W4 = test: Test B postemergence cross resistance test; details: Glycine max, post-emergence; for % crop injury at 2 g/ha: W4, 2 g/ha postemergence
Method in brief: as §2

mutant line W23 = test: Test B postemergence cross resistance test; details: Glycine max, post-emergence
Method in brief: as §2

Mutant 1-184A = test: Test A postemergence herbicide spray, greenhouse pots
Text: (§3) In the first post-emergence test, two true-breeding resistant mutant lines, W19 and W20, were compared to previously isolated tolerant mutants and wild-type Williams 82. Eighteen pots (20 cm diameter) of each soybean line (2 seeds per pot) were planted using a standard sterile potting mix. When the seedlings reached the second trifoliolate stage, plants were thinned back to one plant per pot. Each pot was then sprayed with a specific herbicide treatment using a conveyor belt spray apparatus to emulate field application. The nine different herbicide treatments included one rate (8 g/ha) of Compound 1 and two rates (8 and 32 g/ha) each of four other sulfonylurea herbicides (Compounds 2,3,7 and 8) (see Table VI) using a factorial treatment design with 2 replications.
(§4) In both postemergence tests, plants were returned to the greenhouse after treatment and provided with ample light, moisture, and nutrients to support healthy plant growth. Two to three ratings per pot were recorded over a three-week period and averaged to obtain a single value for each pot For each herbicide, analysis of variance on injury ratings was performed separately. Fisher's least significant difference (LSD) was used to determine the significance of line mean differences at each herbicide rate using the 95% level of confidence. […]

mutant W19 = test: as above
Text: as §3, §4

Williams 82 [3] = test: as above
Text: as §3, §4

mutant W20 = test: as above
Text: as §3, §4

Williams = test: Seed soak test with Compound 8; details: seeds soaked 16 hours in 2 ppm solution, within two weeks of planting
Procedure: (§5) The original W4-4 M2 plant was allowed to self pollinate, mature, and produced a family of M3 seeds. An M3 progeny test was then conducted to determine if the new resistance phenotype was heritable and if the M3 family was true-breeding or segregating for the new resistance trait. The M3 progeny of W4-4 were screened for resistance with the same seed soak technique used to select the original W4-4 M2 plant. Twenty seeds each of the W4-4 M3 family, W20 line, and Williams line were soaked for 16 hours in a solution of 2 ppm of Compound 8. Twenty additional seeds of Williams were soaked for 16 hours in plain tap water as a control treatment. Treated seeds were then washed for two minutes in running water. Each seed was then planted in a separate pot for ease of observation.

W4-4 M3 family = test: Seed soak test with Compound 8; details: W4-4 M3, seeds soaked 16 hours in 2 ppm solution, within two weeks of planting
Procedure: as §5

For COc1nc(C)nc(NC(=O)NS(=O)(=O)c2ccccc2Cl)n1 [Compound 1, 2-chloro-N-[[(4-methoxy-6-methyl-1,3,5-triazin-2-yl)amino]carbonyl]benzenesulfonamide], the “% Injury” value (Williams 82 [1]; WM 82, 0.3 g/ha preemergence) was 30%, the “% Injury” value (Williams 82 [1]; WM 82, 1 g/ha preemergence) was 50% and the “% Injury” value (Williams 82 [1]; WM 82, 3 g/ha preemergence) was 73%. The “% Injury” value (Williams 82 [1]; WM 82, 10 g/ha preemergence) was 95%, the “% Injury” value (Williams 82 [1]; WM 82, 30 g/ha preemergence) was 100% and the “% Injury” value (Williams 82 [1]; WM 82, 100 g/ha preemergence) was 100%. The “% Injury” value (Williams 82 [1]; WM 82, 300 g/ha preemergence) was 100%, the “% Injury” value (W20; W20, 0.3 g/ha preemergence) was 0% and the “% Injury” value (W20; W20, 1 g/ha preemergence) was 0%. The “% Injury” value (W20; W20, 3 g/ha preemergence) was 3%, the “% Injury” value (W20; W20, 10 g/ha preemergence) was 3% and the “% Injury” value (W20; W20, 30 g/ha preemergence) was 18%. For the same compound, the “% Injury” value (W20; W20, 100 g/ha preemergence) was 63%, the “% Injury” value (W20; W20, 300 g/ha preemergence) was 65% and the percent crop injury at 8 g/ha (mutant line W20; W20, 8 g/ha postemergence) was 0%. For the same compound, the mean % injury to soybean at 2 g/ha (mutant line W28) was 0%, the mean % injury to soybean at 8 g/ha (mutant line W28; W28, 8 g/ha postemergence) was 0% and the percent soybean crop injury at 2 g/ha (mutant line W19) was 0%. It also gave a percent soybean crop injury at 8 g/ha (mutant line W19; W19, 8 g/ha postemergence) of 13%, a soybean crop injury (%) at 2 g/ha (mutant line W17) of 0% and a soybean crop injury (%) at 8 g/ha (mutant line W17; W17, 8 g/ha postemergence) of 0%. For the same compound, the soybean crop injury at 2 g/ha (Williams 82 [2]) was 98%, the soybean crop injury at 8 g/ha (Williams 82 [2]; Wm 82, 8 g/ha postemergence) was 100% and the % crop injury at 2 g/ha (mutant line W4) was 0%. For the same compound, the % crop injury at 8 g/ha (mutant line W4; W4, 8 g/ha postemergence) was 0%, the percent soybean injury at 8 g/ha (mutant line W23; W23, 8 g/ha postemergence) was 0% and the mean % injury (Mutant 1-184A; 8 g/ha postemergence) was 97%. For the same compound, the mean % injury (mutant W19; W19, 8 g/ha postemergence) was 12%, the mean % injury (Williams 82 [3]; WM 82, 8 g/ha postemergence) was 97% and the mean % injury (mutant W20; W20, 8 g/ha postemergence) was 13%.

In the case of COC(=O)c1cccnc1S(=O)(=O)NC(=O)Nc1nc(OC)cc(OC)n1 [Compound 8, Methyl 2-[[[[(4,6-dimethoxy-2-pyrimidinyl)amino]carbonyl]amino]sulfonyl]-3-pyridinecarboxylate], the “seedling development after seed soak” value (Williams) is reported as “had not started to form true leaves”, the “seedling development after seed soak” value (W4-4 M3 family) is reported as “had developed both unifoliolate and trifoliolate leaves” and the percent crop injury at 0.5 g/ha (mutant line W20; W20, 0.5 g/ha postemergence) is reported as 19%. The percent crop injury at 2 g/ha (mutant line W20; W20, 2 g/ha postemergence) was 89%, the mean % injury to soybean at 0.5 g/ha (mutant line W28; W28, 0.5 g/ha postemergence) was 53% and the mean % injury to soybean at 2 g/ha (mutant line W28) was 84%. The percent soybean crop injury at 0.5 g/ha (mutant line W19; W19, 0.5 g/ha postemergence) was 29%, the percent soybean crop injury at 2 g/ha (mutant line W19) was 85% and the soybean crop injury (%) at 0.5 g/ha (mutant line W17; W17, 0.5 g/ha postemergence) was 26%. For the same compound, the soybean crop injury (%) at 2 g/ha (mutant line W17) was 83%, the soybean crop injury at 0.5 g/ha (Williams 82 [2]; Wm 82, 0.5 g/ha postemergence) was 93% and the soybean crop injury at 2 g/ha (Williams 82 [2]) was 98%. The % crop injury at 0.5 g/ha (mutant line W4; W4, 0.5 g/ha postemergence) was 39%, the % crop injury at 2 g/ha (mutant line W4) was 81% and the percent soybean injury at 0.5 g/ha (mutant line W23; W23, 0.5 g/ha postemergence) was 21%. The percent soybean injury at 2 g/ha (mutant line W23; W23, 2 g/ha postemergence) was 70%, the mean % injury (Mutant 1-184A; 8 g/ha postemergence) was 93% and the mean % injury (Mutant 1-184A; 32 g/ha postemergence) was 92%. It also gave a mean % injury (mutant W19; W19, 8 g/ha postemergence) of 84%, a mean % injury (mutant W19; W19, 32 g/ha postemergence) of 95% and a mean % injury (Williams 82 [3]; WM 82, 8 g/ha postemergence) of 95%. It also gave a mean % injury (Williams 82 [3]; WM 82, 32 g/ha postemergence) of 95%, a mean % injury (mutant W20; W20, 8 g/ha postemergence) of 93% and a mean % injury (mutant W20; W20, 32 g/ha postemergence) of 97%.
